Results as given in patent US9179682B2, “Biocides and apparatus” (A.Y. Laboratories Ltd., priority 2004, dated 2015).

Test: Reduction of Na2S: total sulfur and sulfate after addition of oxidizer, Series 7
Settings: 100 ml DI water with ~5 mg sodium sulfide; several days after addition of oxidizer
Experimental: A series of containers each containing 100 ml DI water in which ˜5 mg of sodium sulfide was dissolved were prepared. To each container an appropriate amount of an oxidizer or a control solution was added as follows: • a. […] Monochloroamine (MCA) formed from ammonium sulfate and NaOCl (1:1 molar ratio, each component pre-diluted before mixing, 15 ppm as total chlorine). • d.
Samples were analyzed for total sulfur and for sulfate several days after addition of oxidizer.

O=N[O-].[Na+] [Test A, NaNO2]
% S remaining: 100%
